Measured values as given in patent EP0004894A1, “Fertilizer for providing plants with iron” (BAYER AG, priority 1978, dated 1979).

How the values were obtained:
[1] = Water solubility of the preparation; format: physicochemical
[2] = system: Chrysanthemum indicum (Sorte: Yellow Delaware); test: Iron deficiency control / leaf uptake test (Eisenmangel-Bekämpfung / Blattaufnehmbarkeits-Test); format: in vivo; details: for Intenistät der Grünfärbung junger Blätter / Ø Anzahl neu gebildeter Blätter: sprayed twice on fully chlorotic plants
Text: Eisenmangel-Bekämpfung / Blattaufnehmbarkeits-Test
In einem Kultursubstrat der oben angegebenen Zusammensetzung werden Versuchspflanzen angezogen, wobei die Dünung und die Bewässerung dadurch erfolgt, daß man zweimal wöchentlich eine mineralische Eisenmangel-Nährlösung nach Hoagland und Arnon (Circular 347, College of Agriculture, University of California, Berkeley 1950) hinzugibt. Die so angezogenen völlig chlorotischen Versuchspflanzen werden in Fünfblattstadium mit der Wirkstoffzubereitung tropfnaß besprüht, wobei durch Abdecken dafür gesorgt wird, daß die Wirkstoffzubereitung nicht in das Kultursubstrat gelangt. Nach 2 Tagen wird erneut in gleicher Weise mit der Wirkstoffzubereitung besprüht. Die Auswertung erfolgt dann, wenn bei den mit einem wasserlöslichen, handelsüblichen Eisen-Dünger in optimaler Menge behandelten Pflanzen durchschnittlich 3 Blätter neu gebildet sind. Es wird jeweils die durchschnittliche Anzahl neu gebildeteter Blätter bei allen Versuchspflanzen ermittelt. Ferner wird die Intensität der Grünfärbung von neu gebildeten Blättern bonitiert und durch Kennzahlen ausgedrückt.

[3] = 0,1 % preparation in spray liquid
[4] = 0,02 % preparation in spray liquid
[5] = 0,5 % preparation in spray liquid

Row | Wasserlöslichkeit des Präparates [1] | SMILES | Intenistät der Grünfärbung junger Blätter [2, 3] | Ø Anzahl neu gebildeter Blätter [2, 3] | Intenistät der Grünfärbung junger Blätter [2, 4] | Ø Anzahl neu gebildeter Blätter [2, 4] | Intenistät der Grünfärbung junger Blätter [2, 5] | Ø Anzahl neu gebildeter Blätter [2, 5] | Eisenmangel ([2]; fully chlorotic Chrysanthemum indicum, Sorte Yellow Delaware)
1 | gering | CCC(=O)c1cc[cH-]c1.[Fe+2].c1cc[cH-]c1 [Propionylferrocen, reference compound] | 3 (25 %-ig chlorotisch) | 4 | 8 | 3 | 2 | 5 | –
2 | gering | CC(CC(=O)[c-]1cccc1)CC(C)(C)C.[Fe+2].c1cc[cH-]c1 (stereo not drawn) [3,5,5-Trimethylhexanoyl-ferrocen] | 2 | 5 | 3 (25 %-ig chlorotisch) | 4 | 1 (0 %-ig chlorotisch (dunkelgrün)) | 7 | stark verringern oder sogar völlig beheben
